The source of these data is US5763249A, “Antibody-mediated reduction of α-ketoamides” (The Regents of the University of California, priority 1991, dated 1998).

pKd: −log10 of the molar value.

What is called pKd is the Kd on a negative log10 scale, so that one unit is a factor of ten. A low value points to a large Kd. The Km is the substrate concentration at which the rate is half of its maximum.

For assay [1], the target named is monoclonal antibody A5, specific for (raised against) the phosphonate hapten 3. In words: Fluorescence quenching binding of inhibitor to antibody A5. To be noted: from fluorescence quenching experiments; inhibitor of the antibody-catalyzed reaction. The method, then:
(§1) Greater than 25 turnovers were measured with no apparent change in Vmax.

The subject of assay [2] is monoclonal antibody A5, specific for (raised against) the phosphonate hapten 3. Briefly: Antibody A5-catalysed NaBH3CN-dependent reduction of ketoamide 1, steady-state kinetics (HPLC, Lineweaver Burk). To be noted: substrate ketoamide 1; 13μM antibody, 1mM NaBH3CN, 22° C, 50mM NaCl, 50mM MES buffer, 10% methanol. Type of assay: biochemical. The method, then:
Monoclonal antibodies specific for the phosphonate 3 were purified to homogeneity by chromatography on protein-A coupled sepharose, as determined by polyacrylamide gel electrophoresis. Eight of these antibodies were assayed for their ability to reduce the ketoamide 1 by high performance liquid chromatography (HPLC). The (S)-(--)-α-methylbenzylamine group was incorporated into the ketoacid substrate to facilitate analysis of reaction specificity, it having previously been shown that antibodies specific for the phosphonate 3 are relatively insensitive to substitutions in the aliphatic linker. The ketoamide 1 was prepared by a modification of the method of Westerberg and coworkers (Westerberg, D.A., et aL, J. Med Chem. 1989, 32, 236) for the preparation of 4-nitrophenylpyruvic acid. […]
Consequently, all kinetic parameters were measured in the presence of 13μM antibody, 1mM NaBH3 CN at 22° C in 50mM NaCl, 50mM MES buffer. […] Initial reaction rates were determined by measuring the amounts of 1 and 2 (both diastereomers) relative to a p-cresol internal standard using analytical reverse-phase HPLC (Rainin CYNAMAX MICROSORB C18, a common silica-C18 HPLC column packing, with a continuous phase consisting of 40-80% of TFA/CH3 CN in 0.1% aqueous TFA).
as §1

With `COP(=O)(O)Oc1ccc([N+](=O)[O-])cc1` [4-nitrophenyl methylphosphate], the negative logarithm of the Kd (pKd) in assay [1] is 6.21.
With `CC(NC(=O)C(=O)Cc1ccc([N+](=O)[O-])cc1)c1ccccc1` (stereo not drawn) [compound 1, 1-(p-nitrobenzyl)-2-(α-methyl-benzylamino)ethanedione], in assay [2], the Km came out at 1240 µM and the κcat was determined as 0.104 min⁻¹.
